We go through five compounds from US6809115B2, “METHODS AND COMPOSITIONS FOR THE TREATMENT OF DIABETES, THE REDUCTION OF BODY FAT, IMPROVEMENT OF INSULIN SENSITIVITY, REDUCTION OF HYPERGLYCEMIA, AND REDUCTION OF HYPERCHOLESTEROLEMIA WITH CHROMIUM COMPLEXES, CONJUGATED FATTY ACIDS, AND/OR CONJUGATED FATTY ALCOHOLS” (Nutrition 21, Inc., priority 2000, dated 2004).

The conditions of data set [1]: patients treated for obesity; cited from earlier work.
For data set [2] the following is noted: rats, oral CrCl3, co-administered NSAID; cited from earlier work.
For data set [3] the following is noted: in vivo; cited from earlier work.
The conditions of data set [4]: growing animals; cited from earlier work.
The conditions of data set [5]: cited from earlier work.
For data set [6], the system named is human skeletal muscle culture. The experiment in a line: glucose uptake in human skeletal muscle culture. In kind it is cell-based. As to conditions: FIGS. 1 and 2, axis in pico Moles per milligram. The text has this:
FIG. 2 graphs the effect of CP+CLA on glucose uptake in human skeletal muscle culture.
FIG. 3 illustrates the effect of CP+CLA on glucose uptake in human skeletal muscle culture.
Embodiments of the present invention include compositions which contain a conjugated fatty acid or conjugated fatty alcohol in combination with at least one chromium complex. Additionally, uses of the compositions disclosed herein to treat diabetes and/or obesity are provided. The co-administration of a conjugated fatty acid or conjugated fatty alcohol and at least one chromium complex provides a number of advantages over conventional pharmaceutical regimes for the treatment of diabetes and promotion of weight loss. One advantage of the compositions described herein over conventional treatment regimes for diabetes (such as injection of insulin) and weight loss is that compositions comprising a conjugated compound such as a conjugated fatty acid or conjugated fatty alcohol and at least one chromium complex have no known side effects while still providing efficacy in glucose uptake and weight loss. […] Those bars on FIGS. 1, 2, and 3 representing Chromium Picolinate (CP) and Conjugated Linoleic Acid (CLA) are measured in nanograms per milliliter.

Take `CC(C)CC(N(C)C)C1(c2ccc(Cl)cc2)CCC1` (stereo not drawn) [Sibutramine]: in data set [1], the side effects entry is “increases blood pressure in a subset of patients”. For the compound `CC(=O)Oc1ccccc1C(=O)O` [aspirin, acetylsalicylic acid], the chromium absorption result in data set [2] is listed as “facilitated”. Turning to `CCCCCCCCCCC[C@@H](C[C@@H]1OC(=O)[C@H]1CCCCCC)OC(=O)[C@H](CC(C)C)NC=O` [orlistat], the side effects entry in data set [1] is on record as “may have unpleasant gastrointestinal side effects”. On to chromium picolinate, for which the “weight loss and body composition” value in data set [3] is “modest weight loss and changes in body composition”. As to conjugated linoleic acid [CLA], the “reduction of fat gain” value in data set [4] is 25%-70%. The “effect of CLA alone in obese subjects” value in data set [5] (added to standard diet and exercise) is “no effect”. Further, the fat mass result in data set [5] (subgroup who did not follow diet and exercise well and gained lean body mass, placebo subjects had increase) is recorded as “reduction in fat mass”. Besides, the glucose uptake entry in data set [6] (basal (without insulin)) and in data set [6] (stimulated (with insulin)) was “no effect” in each case.
